The text below walks through data of ChEMBL document CHEMBL1201862, “PubChem BioAssay data set” (2004).

Active and inactive are the calls of the source. Some results are limits rather than exact numbers.

For test [1], the target named is T1, Sentrin-specific protease 6 (Homo sapiens, UniProt Q9GZR1).
T1 sequence (Q9GZR1 whole entry): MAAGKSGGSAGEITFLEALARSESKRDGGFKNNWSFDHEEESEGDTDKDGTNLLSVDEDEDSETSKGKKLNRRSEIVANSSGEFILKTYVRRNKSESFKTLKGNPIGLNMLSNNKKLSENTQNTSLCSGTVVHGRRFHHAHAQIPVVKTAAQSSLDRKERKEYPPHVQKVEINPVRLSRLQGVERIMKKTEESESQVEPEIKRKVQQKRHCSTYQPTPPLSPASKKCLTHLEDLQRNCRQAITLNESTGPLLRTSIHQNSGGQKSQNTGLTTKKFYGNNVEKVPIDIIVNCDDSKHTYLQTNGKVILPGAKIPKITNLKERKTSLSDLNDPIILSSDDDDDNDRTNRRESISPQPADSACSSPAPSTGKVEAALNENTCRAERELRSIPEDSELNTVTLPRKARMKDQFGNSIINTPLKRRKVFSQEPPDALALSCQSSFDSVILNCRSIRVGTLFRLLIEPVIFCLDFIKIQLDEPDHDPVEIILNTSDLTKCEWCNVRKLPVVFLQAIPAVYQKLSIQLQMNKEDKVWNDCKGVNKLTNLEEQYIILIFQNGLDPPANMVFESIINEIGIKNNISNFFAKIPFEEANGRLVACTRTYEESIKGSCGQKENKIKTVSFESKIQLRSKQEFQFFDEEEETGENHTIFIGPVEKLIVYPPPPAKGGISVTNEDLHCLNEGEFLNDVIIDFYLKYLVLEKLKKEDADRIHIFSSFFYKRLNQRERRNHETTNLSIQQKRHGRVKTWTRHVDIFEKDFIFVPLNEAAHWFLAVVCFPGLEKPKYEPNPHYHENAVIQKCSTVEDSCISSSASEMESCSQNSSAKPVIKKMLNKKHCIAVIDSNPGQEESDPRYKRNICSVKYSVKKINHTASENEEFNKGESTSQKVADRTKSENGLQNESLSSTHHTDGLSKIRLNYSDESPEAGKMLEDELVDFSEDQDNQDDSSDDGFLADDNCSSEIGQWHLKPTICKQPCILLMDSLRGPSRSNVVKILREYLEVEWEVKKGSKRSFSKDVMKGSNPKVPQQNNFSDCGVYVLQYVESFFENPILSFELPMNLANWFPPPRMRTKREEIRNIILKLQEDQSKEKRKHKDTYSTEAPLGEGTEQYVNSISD
Put plainly: SAR Analysis of small molecule inhibitors of Sentrin-specific protease 6 (SENP6) using a Luminescent assay. [Related pubchem assays (depositor defined):AID2582, AID2599]. It counts as functional.

The target in test [2] is T2, Sphingosine 1-phosphate receptor 4 (Homo sapiens, UniProt O95977).
T2 sequence (O95977 whole entry): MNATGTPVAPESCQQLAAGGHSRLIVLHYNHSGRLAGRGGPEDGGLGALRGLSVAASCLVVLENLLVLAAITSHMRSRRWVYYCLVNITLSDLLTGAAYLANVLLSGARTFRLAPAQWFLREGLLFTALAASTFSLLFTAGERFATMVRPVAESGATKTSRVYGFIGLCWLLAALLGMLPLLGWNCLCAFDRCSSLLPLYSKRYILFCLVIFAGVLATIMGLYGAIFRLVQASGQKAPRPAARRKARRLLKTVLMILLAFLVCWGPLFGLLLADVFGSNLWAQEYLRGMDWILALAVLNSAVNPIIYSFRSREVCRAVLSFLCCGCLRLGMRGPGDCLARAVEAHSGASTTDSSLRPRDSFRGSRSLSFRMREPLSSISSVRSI
In words: Fluorescence dose response cell-based high throughput screening assay for antagonists of the Sphingosine 1-Phosphate Receptor 4 (S1P4). [Related pubchem assays: 1524 (Confirmation in triplicates.), 1510 (Primary screen.)]. It counts as functional.

In another test the target is Mu-type opioid receptor (Homo sapiens, UniProt P35372). In words: HTS Image-Based Screen for Agonists of the MOR Receptor. [Related pubchem assays (depositor defined):AID1777, AID1785, AID1786, AID2133]. It counts as functional.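 Also: imaging of beta-arrestin GFP recruitment into spots after receptor activation.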
Sequence of Mu-type opioid receptor (P35372 whole entry): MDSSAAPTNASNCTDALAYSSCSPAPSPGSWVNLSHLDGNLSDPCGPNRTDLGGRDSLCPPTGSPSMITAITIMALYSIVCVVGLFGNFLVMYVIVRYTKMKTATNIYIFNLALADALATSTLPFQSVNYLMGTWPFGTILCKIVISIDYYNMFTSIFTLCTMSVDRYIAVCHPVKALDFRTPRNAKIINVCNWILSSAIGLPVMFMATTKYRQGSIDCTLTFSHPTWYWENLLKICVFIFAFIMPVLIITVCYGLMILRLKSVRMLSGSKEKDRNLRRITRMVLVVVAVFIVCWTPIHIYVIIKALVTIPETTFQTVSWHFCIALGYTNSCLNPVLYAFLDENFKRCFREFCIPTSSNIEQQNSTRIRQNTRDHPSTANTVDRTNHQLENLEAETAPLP
Test [3] is described as follows: blockers of bursicon-stimulated LGR2 cAMP reporter – cell-based, HEK293, CRE-luciferase reporter, cherry pick, set 2, dose response (AID 743343).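 Also: transfected cells were stimulated with diluted bursicon conditioned medium after compound addition.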 The format is functional. Background: A reporter such as luciferase makes a cellular process visible.
The nature of test [4]: Luminescence Cell-Based Dose Response HTS to Identify Inhibitors of 5'UTR Stem-Loop Driven Prion Protein mRNA Translation in H4 Neuroglioblastoma Cells. [Related pubchem assays: 1827 (Project Summary), 1813 (Primary HTS)]. It counts as functional.
The next test in a line: cells. It counts as functional, cell-based.
Test [5] can be described thus: Counterscreen for AddAB inhibitors: absorbance-based bacterial cell-based high throughput dose response assay for inhibitors of bacterial viability. [Related pubchem assays (depositor defined):AID435030, AID449728, AID449731, AID488942, AID488955, AID488956]. It counts as functional.

Take `Oc1ccc(/C=N\Nc2cc(N3CCOCC3)nc(N3CCOCC3)n2)c(O)c1`: the half-inhibitory concentration (IC50) in test [1] is 31.8 µM (active).
Regarding `COc1cc(NC(=O)Cn2ncc(Cl)c(Cl)c2=O)c(C)cc1[N+](=O)[O-]`, in test [2], the IC50 was 1.32 µM (active). Also, the EC50 at Mu-type opioid receptor is > 32 µM (inactive); in test [4], 9.83 µM (active). In test [3], the concentration at half-maximal activity (AC50) was 23.2 µM (active).
As to `Cc1ccc(C)c(S(=O)(=O)N2CCN(Cc3ccc(O)c4ncccc34)CC2)c1`, in “cells”, the EC50 is > 350 µM (not active). Also, in test [5], the IC50 was > 119 µM (inactive).

By IC50 is commonly meant the midpoint of a concentration-inhibition curve. As a reminder, the EC50 is the concentration giving half of the maximal effect. By AC50 is commonly meant the midpoint of the concentration-response curve, whichever way the signal moves.
